Data taken from patent US9695155B2, “Herbicidal substituted pyrimidinyloxy benzene compounds” (E. I. DU PONT DE NEMOURS AND COMPANY, priority 2013, dated 2017).

Key:
[1] = system: barnyardgrass; experiment: Test A preemergence; format: in vivo, Echinochloa crus-galli
Method in brief: (§1)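 Visual 0–100 rating (100 = complete control) taken about 10 d post-treatment relative to untreated checks. Preemergence: directed soil spray on sown loam/sand pots. Postemergence: seedlings 2–10 cm, 1–2 leaf. Non-phytotoxic solvent formulation with surfactant.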

[2] = system: giant foxtail; experiment: Test A preemergence; format: in vivo, Setaria faberii
Method in brief: as §1

[3] = system: wheat; experiment: Test A preemergence; format: in vivo, Triticum aestivum
Method in brief: as §1

[4] = system: corn; experiment: Test A preemergence; format: in vivo, Zea mays
Method in brief: as §1

[5] = system: rice; experiment: Test B flooded paddy test; format: in vivo, Oryza sativa; settings: Oryza sativa; Flood, 250 g ai/ha; 0 to 100 scale where 0 is no effect and 100 is complete control; read-out: Plant response rating, Rice
Method in brief: (§2)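 Scores from 0 (no effect) to 100 (complete control) are visual comparisons with controls, taken 13 to 15 days after compound was applied into floodwater 3 cm deep around 2-leaf plants.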

[6] = system: sedge, umbrella; experiment: Test B flooded paddy test; format: in vivo, Cyperus difformis; settings: Cyperus difformis, Flood, 250 g ai/ha; 0 to 100 scale where 0 is no effect and 100 is complete control; read-out: Plant response rating, Sedge, Umbrella
Method in brief: as §2

[7] = system: Heteranthera limosa; experiment: Test B flooded paddy test; format: in vivo; settings: Heteranthera limosa, Flood, 250 g ai/ha; 0 to 100 scale where 0 is no effect and 100 is complete control; read-out: Plant response rating, Ducksalad
Method in brief: as §2

[8] = system: barnyardgrass; experiment: Test B flooded paddy test; format: in vivo, Echinochloa crus-galli; settings: Echinochloa crus-galli; Flood, 250 g ai/ha; 0 to 100 scale where 0 is no effect and 100 is complete control; read-out: Plant response rating, Barnyardgrass
Method in brief: as §2

[9] = system: wheat, winter; experiment: Test C postemergence; format: in vivo, Triticum aestivum
Method in brief: (§3)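 Injury was assessed visually against controls 13 to 15 days after application, with 0 meaning no effect and 100 full control; missing entries are shown as a dash. Preemergence sprays hit seeded loam–sand soil, postemergence sprays hit 1- to 4-leaf plants.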

[10] = system: galium; experiment: Test C postemergence; format: in vivo, Galium aparine; settings: Galium, post-emergence
Method in brief: as §3

[11] = system: lambsquarters; experiment: Test C postemergence; format: in vivo, Chenopodium album
Method in brief: as §3

[12] = system: morningglory; experiment: Test C postemergence; format: in vivo, Ipomoea coccinea
Method in brief: as §3

[13] = system: yellow nutsedge; experiment: Test C postemergence; format: in vivo, Cyperus esculentus
Method in brief: as §3

[14] = system: ragweed; experiment: Test C postemergence; format: in vivo, Ambrosia elatior
Method in brief: as §3

[15] = system: velvetleaf; experiment: Test C postemergence; format: in vivo, Abutilon theophrasti
Method in brief: as §3

[16] = system: chickweed; experiment: Test C postemergence; format: in vivo, Stellaria media; settings: Stellaria media, post-emergence
Method in brief: as §3

[17] = 31 g ai/ha, postemergence, visual rating, scale 0 to 100 (0 no effect, 100 complete control), 13 to 15 days

N#Cc1cccc(Oc2ncc(Cl)cn2)c1-n1cc(OCC(F)(F)F)cn1 [Compound 274, 3-[(5-chloro-2-pyrimidinyl)oxy]-2-[4-(2,2,2-trifluoroethoxy)-1H-pyrazol-1-yl]benzonitrile]
Barnyardgrass plant response rating (0 to 100 scale, 0 is no effect, 100 is complete control) ([1]; 125 g ai/ha): 90 | pest or weed control at 500 g/ha ([1]; Echinochloa crus-galli, pre-emergence, 240 h, 500 g ai/ha, 0 to 100 scale where 0 is no effect and 100 is complete control, read-out: Barnyardgrass plant response rating): 100% | Foxtail, Giant plant response rating (0 to 100 scale) ([2]; 125 g ai/ha): 100 | pest or weed control at 500 g/ha ([2]; Setaria faberi, pre-emergence, 240 h, 500 g ai/ha, 0 to 100 scale where 0 is no effect and 100 is complete control, read-out: Foxtail, Giant plant response rating): 100% | Wheat plant response rating (0 to 100 scale) ([3]; 125 g ai/ha): 40 | plant injury at 500 g/ha ([3]; Triticum aestivum, pre-emergence, 240 h, 500 g ai/ha, 0 to 100 scale where 0 is no effect and 100 is complete control, read-out: Wheat plant response rating): 80% | Corn plant response rating (0 to 100 scale) ([4]; 125 g ai/ha): 50 | plant injury at 500 g/ha ([4]; Zea mays, pre-emergence, 240 h, 500 g ai/ha, 0 to 100 scale where 0 is no effect and 100 is complete control, read-out: Corn plant response rating): 50% | plant injury at 250 g/ha [5]: 60% | pest or weed control at 250 g/ha [6]: 95% | pest or weed control at 250 g/ha [7]: 95% | pest or weed control at 250 g/ha [8]: 65% | Wheat plant response rating [9, 17]: 5 | plant injury at 16 g/ha ([9]; Triticum aestivum, post-emergence, 16 g ai/ha, postemergence, 0 is no effect, 100 is complete control, read-out: Plant response rating (0 to 100), Wheat): 5% | plant injury at 125 g/ha ([9]; Triticum aestivum, post-emergence, 125 g ai/ha, postemergence, visual rating, scale 0 to 100 (0 no effect, 100 complete control), read-out: Plant response rating, Wheat): 15% | plant injury at 62 g/ha ([9]; Triticum aestivum, post-emergence, Postemergence, 62 g ai/ha, scale 0 to 100 (0 no effect, 100 complete control), 13 to 15 days, read-out: Plant response rating, Wheat): 5% | pest or weed control at 16 g/ha ([10]; 16 g ai/ha, postemergence, 0 is no effect, 100 is complete control, read-out: Plant response rating (0 to 100), Galium): 70% | pest or weed control at 31 g/ha ([10]; 31 g ai/ha, postemergence, visual rating, scale 0 to 100 (0 no effect, 100 complete control), 13 to 15 days, read-out: Galium plant response rating): 80% | pest or weed control at 125 g/ha ([10]; 125 g ai/ha, postemergence, visual rating, scale 0 to 100 (0 no effect, 100 complete control), read-out: Plant response rating, Galium): 98% | pest or weed control at 62 g/ha ([10]; Postemergence, 62 g ai/ha, scale 0 to 100 (0 no effect, 100 complete control), 13 to 15 days, read-out: Plant response rating, Galium): 90% | Lambsquarters plant response rating [11, 17]: 95 | pest or weed control at 16 g/ha ([11]; Chenopodium album, post-emergence, 16 g ai/ha, postemergence, 0 is no effect, 100 is complete control, read-out: Plant response rating (0 to 100), Lambsquarters): 85% | pest or weed control at 125 g/ha ([11]; Chenopodium album, post-emergence, 125 g ai/ha, postemergence, visual rating, scale 0 to 100 (0 no effect, 100 complete control), read-out: Plant response rating, Lambsquarters): 98% | pest or weed control at 62 g/ha ([11]; Chenopodium album, post-emergence, Postemergence, 62 g ai/ha, scale 0 to 100 (0 no effect, 100 complete control), 13 to 15 days, read-out: Plant response rating, Lambsquarters): 95% | Morningglory plant response rating [12, 17]: 85 | pest or weed control at 16 g/ha ([12]; Ipomoea, post-emergence, 16 g ai/ha, postemergence, 0 is no effect, 100 is complete control, read-out: Plant response rating (0 to 100), Morningglory): 85% | pest or weed control at 125 g/ha ([12]; Ipomoea, post-emergence, 125 g ai/ha, postemergence, visual rating, scale 0 to 100 (0 no effect, 100 complete control), read-out: Plant response rating, Morningglory): 95% | pest or weed control at 62 g/ha ([12]; Ipomoea, post-emergence, Postemergence, 62 g ai/ha, scale 0 to 100 (0 no effect, 100 complete control), 13 to 15 days, read-out: Plant response rating, Morningglory): 95% | Nutsedge, Yellow plant response rating [13, 17]: 5 | pest or weed control at 16 g/ha ([13]; Cyperus, post-emergence, 16 g ai/ha, postemergence, 0 is no effect, 100 is complete control, read-out: Plant response rating (0 to 100), Nutsedge, Yellow): 10% | pest or weed control at 125 g/ha ([13]; Cyperus, post-emergence, 125 g ai/ha, postemergence, visual rating, scale 0 to 100 (0 no effect, 100 complete control), read-out: Plant response rating, Nutsedge, Yellow): 10% | pest or weed control at 62 g/ha ([13]; Cyperus, post-emergence, Postemergence, 62 g ai/ha, scale 0 to 100 (0 no effect, 100 complete control), 13 to 15 days, read-out: Plant response rating, Nutsedge, Yellow): 20% | Ragweed plant response rating [14, 17]: 60 | pest or weed control at 16 g/ha ([14]; Ambrosia artemisiifolia, post-emergence, 16 g ai/ha, postemergence, 0 is no effect, 100 is complete control, read-out: Plant response rating (0 to 100), Ragweed): 50% | pest or weed control at 125 g/ha ([14]; Ambrosia artemisiifolia, post-emergence, 125 g ai/ha, postemergence, visual rating, scale 0 to 100 (0 no effect, 100 complete control), read-out: Plant response rating, Ragweed): 75% | pest or weed control at 62 g/ha ([14]; Ambrosia artemisiifolia, post-emergence, Postemergence, 62 g ai/ha, scale 0 to 100 (0 no effect, 100 complete control), 13 to 15 days, read-out: Plant response rating, Ragweed): 40% | Velvetleaf plant response rating [15, 17]: 50 | pest or weed control at 16 g/ha ([15]; Abutilon theophrasti, post-emergence, 16 g ai/ha, postemergence, 0 is no effect, 100 is complete control, read-out: Plant response rating (0 to 100), Velvetleaf): 30% | pest or weed control at 125 g/ha ([15]; Abutilon theophrasti, post-emergence, 125 g ai/ha, postemergence, visual rating, scale 0 to 100 (0 no effect, 100 complete control), read-out: Plant response rating, Velvetleaf): 75% | pest or weed control at 62 g/ha ([15]; Abutilon theophrasti, post-emergence, Postemergence, 62 g ai/ha, scale 0 to 100 (0 no effect, 100 complete control), 13 to 15 days, read-out: Plant response rating, Velvetleaf): 65% | pest or weed control at 16 g/ha ([16]; 16 g ai/ha, postemergence, 0 is no effect, 100 is complete control, read-out: Plant response rating (0 to 100), Chickweed): 70% | pest or weed control at 31 g/ha ([16]; 31 g ai/ha, postemergence, visual rating, scale 0 to 100 (0 no effect, 100 complete control), 13 to 15 days, read-out: Chickweed plant response rating): 70% | pest or weed control at 125 g/ha ([16]; 125 g ai/ha, postemergence, visual rating, scale 0 to 100 (0 no effect, 100 complete control), read-out: Plant response rating, Chickweed): 98% | pest or weed control at 62 g/ha ([16]; Postemergence, 62 g ai/ha, scale 0 to 100 (0 no effect, 100 complete control), 13 to 15 days, read-out: Plant response rating, Chickweed): 90%
